The text below walks through data of publication PMC12238837, “DCAF16‐Based Covalent Molecular Glues for Targeted Protein Degradation of Histone Deacetylases” (Archiv Der Pharmazie, 2025).

The target of assay [1] is HDAC2 (Homo sapiens, UniProt Q92769). As to the kind of experiment: HDAC enzyme inhibition assay (ZMAL substrate), HDAC2. The arrangement: purchased BPS Bioscience 50052. Particulars: n = 2, mean ± SD. The assay is classed as biochemical. On the procedure: (§1) The total assay volume of 50 μL (HDAC2/3/6 max. 1% DMSO; HDAC1 max. 5% DMSO) was incubated at 37°C for 90 min. Subsequently, 50 μL of trypsin (0.4 mg/mL) in trypsin buffer (50 mM Tris−HCl, pH 8.0, 100 mM NaCl) was added, followed by an additional 30 min of incubation at 37°C. Fluorescence (excitation λ = 355 nm, emission λ = 460 nm) was measured using a FLUOstar OPTIMA microplate reader. The IC50 was determined by plotting dose–response curves and performing nonlinear regression using GraphPad Prism.
(§2) The total assay volume of 50 μL (HDAC2/3/6 max. 1% DMSO; HDAC1 max. 5% DMSO) was incubated at 37°C for 90 min. Subsequently, 50 μL of trypsin (0.4 mg/mL) in trypsin buffer (50 mM Tris−HCl, pH 8.0, 100 mM NaCl) was added, followed by additional 30 min of incubation at 37°C. Fluorescence (excitation λ = 355 nm, emission λ = 460 nm) was measured using a FLUOstar OPTIMA microplate reader. The IC50 was determined by plotting dose response curves and performing nonlinear regression using GraphPad Prism.^[3-6]

The target in assay [2] is T1, Human recombinant HDAC3/NcoR2 (Homo sapiens, UniProt O15379).
T1 construct: purchased BPS Bioscience 50003
The assay is described as follows: HDAC enzyme inhibition assay (ZMAL substrate), HDAC3. The assay is classed as biochemical. To be noted: n = 2, mean ± SD. The procedure: as §1, §2

Assay [3] concerns the target T2, HDAC1 (Homo sapiens, UniProt Q13547). The assay is described as follows: HDAC enzyme inhibition assay (ZMAL substrate), HDAC1. The assay is classed as biochemical. Further details: purchased BPS Bioscience 50051. Particulars: n = 2, mean ± SD. On the procedure: as §1, §2
For assay [4], the target named is T2, HDAC1. As to the kind of experiment: HDAC1 degradation, western blot in MM.1S cells. The assay is classed as cell-based. The arrangement: endogenous in cells; host or cells: MM.1S. To be noted: 25 μM, 24 h, immunoblot. The procedure:
First, the multiple myeloma cell line MM.1S was treated with varying concentrations (1, 10, and 25 µM) of degraders 10a–d for 6 and 24 h, respectively. HDAC1 and HDAC6 were selected for investigation due to their critical roles in various diseases such as cancer. HDAC1 and HDAC6 protein levels were subsequently evaluated using western blot analysis. […] This limited efficacy could be due to insufficient incubation time of the compounds with MM.1S cells. […] All compounds still exerted no degradation of HDAC6 at different concentrations after 24 h of treatment. However, different from 10b–d, degrader 10a, which contains a hydroxamic acid as ZBG, achieved substantial degradation of HDAC1 with a maximal degradation (D max) value of 74% at 25 μM. Consequently, Compound 10a was selected for further biological evaluations based on the initial screening results.
The MM.1S was obtained from ATCC (Manassas, VA, USA). MM.1S cells were cultivated in RPMI 1640 medium supplemented with 10% FBS, 100 IU/mL penicillin, 0.1 mg/mL streptomycin, and 1 mM sodium pyruvate at 37°C in a 5% CO2 atmosphere.
The MM.1S cells (3 × 10^6 cells/mL) were seeded into cell culture flasks and, after 72 h, treated with the indicated concentration of compound or DMSO for the given time. Cell lysis was performed with Cell Extraction Buffer and the addition of Halt Protease Inhibitor Cocktail and phenylmethanesulfonyl fluoride. Protein content was determined by Pierce BCA Protein Assay Kit. Samples were denatured by Laemmli 2× Concentrate, and Precision Plus Protein Unstained Standard was used as a molecular weight marker in all cases. SDS‐PAGE was performed with 10% Mini‐PROTEAN TGX Stain‐Free Gel (Catalog# 458035, Bio‐Rad, Hercules, CA, USA) at 200 V for 50 min (Catalog# 458035, Bio‐Rad). Afterwards, proteins were transferred with the Trans‐Blot Turbo Transfer System to Immobilon‐FL PVDF membranes at 1.0 A for 30 min and incubated with 5% milk‐powder solution for 1 h at room temperature under slight agitation. […] The ChemiDoc XRS+ System was used for detection, and Image Lab Software 6.1 (Bio‐Rad, Hercules, CA, USA) for quantification.
On the technique in general: A western blot detects proteins with antibodies after separation by electrophoresis.

T2 sequence (Q13547 whole entry): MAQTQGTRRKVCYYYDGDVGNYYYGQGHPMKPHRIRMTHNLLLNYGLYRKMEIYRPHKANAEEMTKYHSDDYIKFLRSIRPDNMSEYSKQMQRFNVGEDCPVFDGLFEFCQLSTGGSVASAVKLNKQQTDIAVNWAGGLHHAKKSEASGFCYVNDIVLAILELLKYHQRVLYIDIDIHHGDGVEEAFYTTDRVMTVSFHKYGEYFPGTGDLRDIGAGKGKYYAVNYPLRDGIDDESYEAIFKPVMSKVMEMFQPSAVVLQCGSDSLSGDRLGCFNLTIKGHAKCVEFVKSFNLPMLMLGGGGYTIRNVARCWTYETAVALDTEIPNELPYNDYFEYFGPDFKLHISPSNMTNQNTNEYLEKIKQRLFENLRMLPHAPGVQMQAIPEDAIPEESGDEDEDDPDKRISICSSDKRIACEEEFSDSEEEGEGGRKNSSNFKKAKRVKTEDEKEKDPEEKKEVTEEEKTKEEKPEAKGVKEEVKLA
T1 sequence (O15379 whole entry): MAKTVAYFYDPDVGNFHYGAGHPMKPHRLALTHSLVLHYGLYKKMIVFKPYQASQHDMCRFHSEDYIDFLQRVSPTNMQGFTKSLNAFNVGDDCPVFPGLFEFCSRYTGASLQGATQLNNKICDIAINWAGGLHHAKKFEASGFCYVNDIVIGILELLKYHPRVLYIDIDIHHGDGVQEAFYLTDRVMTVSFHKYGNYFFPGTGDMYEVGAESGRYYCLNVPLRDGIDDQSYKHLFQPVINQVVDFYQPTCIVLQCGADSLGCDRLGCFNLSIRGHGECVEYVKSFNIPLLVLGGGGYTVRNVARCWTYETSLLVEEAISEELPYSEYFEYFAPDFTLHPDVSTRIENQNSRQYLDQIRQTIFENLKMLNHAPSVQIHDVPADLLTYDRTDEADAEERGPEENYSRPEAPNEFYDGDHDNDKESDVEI
T1 sequence (Q9Y618 395-489 partner limits assumed): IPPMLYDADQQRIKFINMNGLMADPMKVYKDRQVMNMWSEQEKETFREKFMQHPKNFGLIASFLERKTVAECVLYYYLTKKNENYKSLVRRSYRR
HDAC2, sequence (Q92769 whole entry): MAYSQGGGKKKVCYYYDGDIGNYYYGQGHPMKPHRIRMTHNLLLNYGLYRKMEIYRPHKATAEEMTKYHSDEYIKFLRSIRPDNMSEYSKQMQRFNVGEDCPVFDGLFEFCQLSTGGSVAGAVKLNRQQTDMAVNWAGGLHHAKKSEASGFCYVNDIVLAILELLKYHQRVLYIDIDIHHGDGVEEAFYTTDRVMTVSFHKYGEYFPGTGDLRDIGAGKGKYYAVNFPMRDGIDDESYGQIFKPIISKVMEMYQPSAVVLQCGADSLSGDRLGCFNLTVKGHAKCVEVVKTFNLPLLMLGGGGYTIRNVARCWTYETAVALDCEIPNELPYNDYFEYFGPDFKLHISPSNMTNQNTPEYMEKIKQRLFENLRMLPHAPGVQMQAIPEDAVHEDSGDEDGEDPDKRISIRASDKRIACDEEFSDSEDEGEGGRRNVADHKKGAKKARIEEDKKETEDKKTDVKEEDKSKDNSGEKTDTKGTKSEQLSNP

A word on the IC50: it is the concentration that inhibits the measured activity by half. As for `CCS(=O)(=O)N1CCN(C(=O)Cc2ccc(NC(=O)CCCCCCC(=O)NO)cc2)CC1` [10a‐nc, N ^1‐(4‐{2‐[4‐(Ethylsulfonyl)piperazin‐1‐yl]‐2‐Oxoethyl}phenyl)‐N ^8‐Hydroxyoctanediamide], the half-maximal inhibitory concentration (IC50) in assay [1] was found to be 0.423 ± 0.063 µM; in assay [2], 0.323 ± 0.022 µM; in assay [3] it was 0.229 ± 0.004 µM. Further, the “HDAC1 protein levels” value in assay [4] is “did not affect HDAC1 levels”.
